# Experimental data: US7776862B2, “Pyridyl and phenyl substituted piperazine-piperidines with CXCR3 antagonist activity” (Schering Corporation, priority 2005, dated 2010)
# Biological target: T1, human CXCR3 (N-delta 4) (Homo sapiens, UniProt P49682)
# T1 construct: CD8 leader; Flag tag; expressed in transfected cells; membranes used
# T1 sequence (P49682 5-368 limits assumed): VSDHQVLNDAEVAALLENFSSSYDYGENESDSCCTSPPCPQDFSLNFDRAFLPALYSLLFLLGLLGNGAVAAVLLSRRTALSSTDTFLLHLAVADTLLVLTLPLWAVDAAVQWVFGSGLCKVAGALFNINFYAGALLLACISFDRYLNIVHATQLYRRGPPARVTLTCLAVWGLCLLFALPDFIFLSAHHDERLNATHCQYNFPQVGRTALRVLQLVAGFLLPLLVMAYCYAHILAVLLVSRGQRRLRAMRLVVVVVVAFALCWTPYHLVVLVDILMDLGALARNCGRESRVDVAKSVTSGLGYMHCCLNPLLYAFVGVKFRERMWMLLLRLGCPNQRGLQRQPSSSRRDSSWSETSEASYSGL
# Assay: Human CXCR3 (N-delta 4) scintillation proximity assay (SPA), [125I] IP-10 binding
# Conditions: IC50 rating; Ba/F3-hCXCR3 (N-delta 4) membranes, 25 pM [125I] IP-10
# Source text: The inventive compounds can readily be evaluated to determine activity at the CXCR3 receptors by known methods, such as, for example, development of a human CXCR3 (N-delta 4) Binding Assay.
# Cloning and expression of human CXCR3 (N-delta 4):
# The DNA encoding human CXCR3 was cloned by PCR using human genomic DNA (Promega, Madison, Wis.) as a template. The PCR primers were designed based on the published sequence of human orphan receptor GPR9 (1) with incorporated restriction sites, a Kozak consensus sequence, CD8 leader and Flag tag. The PCR product was subcloned into the mammalian expression vector pME18Sneo, a derivative of the SR-alpha expression vector (designated as pME18Sneo-hCXCR3 (N-delta 4).
# IL-3-dependent mouse pro-B cells Ba/F3 were transfected by electroporation in 0.4 ml Dulbecco's PBS containing 4×10^6 cells with 20 μg of pME18Sneo-hCXCR3 (N-delta 4) plasmid DNA. Cells were pulsed at 400 Volts, 100 OHMs, 960 μFd. The transfected cells were under selection with 1 mg/ml G418 (Life Technologies, Gaithersburg, Md.). […] IP-10 (NEN Life Science Products, Boston, Mass.).
# Preparation of Ba/F3-hCXCR3 (N-delta 4) membranes:
# Ba/F3 cells expressing human CXCR3 (N-delta 4) were pelleted and resuspended in the lysis buffer containing 10 mM HEPES, pH 7.5 and Complete® protease inhibitors (1 tablet per 100 ml) (Boehringer Mannheim, Indianapolis, Ind.) at a cell density of 20×10^6 cells per ml. […] Large cellular debris was removed by centrifugation at 1,000×g. Cell membrane in the supernatant was sedimented at 100,000×g. The membrane was resuspended in the lysis buffer supplemented with 10% sucrose and stored at −80° C. Total protein concentration of the membrane was determined by BCA method from Pierce (Rockford, Ill.).
# Human CXCR3 (N-delta 4) scintillation proximity assay (SPA):
# The beads were spun down, washed once, resuspended in the binding buffer and transferred to a 96-well Isoplate (Wallac, Gaithersburg, Md.). […] IP-10 with tested compounds in a series of titration were added to start the reaction.
row,IC50 [nM],Structure (SMILES)
1,> 100,O=C(NCc1cccc(F)c1)c1cnc(N2CCN(C3CCN(Cc4ccc(Cl)cc4Cl)CC3)CC2)c(Cl)c1 [compound 1]
2,> 100,N#Cc1ccc(C(=O)N2CCC(N3CCN(c4ncc(C(=O)NCc5ccc(C(F)(F)F)cc5)cc4Cl)CC3)CC2)cc1 [compound 2]
3,> 100,O=C(NC1CCc2ccccc21)c1cnc(N2CCN(C3CCN(Cc4ccc(Cl)cc4)CC3)CC2)c(Br)c1 (centres unmarked) [compound 3]
4,> 100,O=C(NCc1ccc(F)cc1)c1cnc(N2CCN(C3CCN(Cc4ccc(Br)cc4F)CC3)CC2)c(Cl)c1 [compound 4]
5,> 100,O=C(NCc1ccccc1)c1cnc(N2CCN(C3CCN(Cc4ccc(F)cc4)CC3)CC2)c(Cl)c1 [compound 5]
6,> 100,N#Cc1ccc(CN2CCC(N3CCN(c4ncc(C(=O)NCc5ccccc5F)cc4Cl)CC3)CC2)cc1 [compound 6]
7,> 100,O=C(NCc1ccc(F)cc1)c1cnc(N2CCN(C3CCN(Cc4ccc(Cl)cc4Cl)CC3)CC2)c(Cl)c1 [compound 7]
8,> 100,O=C(NCc1cccc(F)c1)c1cnc(N2CCN(C3CCN(Cc4ccc(F)cc4F)CC3)CC2)c(Cl)c1 [compound 8]
9,> 100,CC1(C)C2CCC(CNC(=O)c3cnc(N4CCN(C5CCN(Cc6ccc(Cl)cc6)CC5)CC4)c(Br)c3)C1C2 (centres unmarked) [compound 9]
10,> 100,O=C(NCc1ccc(F)cc1F)c1cnc(N2CCN(C3CCN(Cc4ccc(Cl)cc4Cl)CC3)CC2)c(Cl)c1 [compound 10]
11,> 100,O=C(NCc1ccc(Br)cc1)c1cnc(N2CCN(C3CCN(Cc4ccc(Cl)cc4Cl)CC3)CC2)c(Cl)c1 [compound 11]
12,> 100,O=C(NCc1cc(Cl)cc(Cl)c1)c1cnc(N2CCN(C3CCN(Cc4ccc(F)cc4F)CC3)CC2)c(Cl)c1 [compound 12]
13,> 100,O=C(NCc1ccc(Cl)cc1)c1cnc(N2CCN(C3CCN(Cc4ccc(Cl)cc4Cl)CC3)CC2)c(Cl)c1 [compound 13]
14,> 100,O=C(NCc1cccc(F)c1)c1cnc(N2CCN(C3CCN(Cc4ccc(Br)cc4F)CC3)CC2)c(Cl)c1 [compound 14]
15,> 100,N#Cc1ccc(C(=O)N2CCC(N3CCN(c4ncc(C(=O)NCCOc5ccccc5)cc4Cl)CC3)CC2)cc1 [compound 15]
16,> 100,O=C(NCCOc1ccccc1)c1cnc(N2CCN(C3CCN(Cc4ccc(F)cc4F)CC3)CC2)c(Cl)c1 [compound 16]
17,> 100,O=C(NCc1ccc(Cl)c(Cl)c1)c1ccc(N2CCN(C3CCN(Cc4ccc(Cl)cc4)CC3)CC2)c(Cl)c1 [compound 17]
18,> 100,O=C(NC1CCCC1)c1cnc(N2CCN(C3CCN(Cc4ccc([N+](=O)[O-])cc4)CC3)CC2)c(Cl)c1 [compound 18]
19,> 100,N#Cc1ccc(C(=O)N2CCC(N3CCN(c4ncc(C(=O)NCc5ccc(F)cc5)cc4Cl)CC3)CC2)cc1 [compound 19]
20,> 100,O=C(NCc1ccc(F)cc1F)c1cnc(N2CCN(C3CCN(Cc4ccc(Br)cc4F)CC3)CC2)c(Cl)c1 [compound 20]
21,> 100,N#Cc1ccc(CN2CCC(N3CCN(c4ncc(C(=O)NCc5ccccc5)cc4Cl)CC3)CC2)cc1 [compound 21]
22,> 100,O=C(NC1CCCC1)c1cnc(N2CCN(C3CCN(Cc4ccc(Cl)c(F)c4)CC3)CC2)c(Cl)c1 [compound 22]
23,> 100,O=C(NCCOc1ccccc1)c1cnc(N2CCN(C3CCN(Cc4ccc(Br)cc4F)CC3)CC2)c(Cl)c1 [compound 23]
24,> 100,O=C(NCc1cccc(Cl)c1)c1cnc(N2CCN(C3CCN(Cc4ccc(Cl)c(F)c4)CC3)CC2)c(Cl)c1 [compound 24]
25,> 100,O=C(NCc1ccc(F)c(F)c1)c1cnc(N2CCN(C3CCN(Cc4ccc(Cl)cc4Cl)CC3)CC2)c(Cl)c1 [compound 25]

row,IC50 [nM],Structure (SMILES)
1,> 100,O=C(NCc1ccc(Cl)cc1Cl)c1cnc(N2CCN(C3CCN(Cc4ccc(Br)cc4F)CC3)CC2)c(Cl)c1 [compound 26]
2,> 100,O=C(NCc1ccc(Cl)cc1F)c1cnc(N2CCN(C3CCN(Cc4ccc(Br)cc4F)CC3)CC2)c(Cl)c1 [compound 27]
3,> 100,O=C(NCc1cccc(Cl)c1)c1cnc(N2CCN(C3CCN(Cc4ccc(F)cc4F)CC3)CC2)c(Cl)c1 [compound 28]
4,> 100,O=C(NCc1cccc(F)c1)c1cnc(N2CCN(C3CCN(Cc4ccc(F)cc4)CC3)CC2)c(Cl)c1 [compound 29]
5,> 100,COc1ccc(CN2CCC(N3CCN(c4ncc(C(=O)NCc5cccc(F)c5)cc4Cl)CC3)CC2)cc1 [compound 30]
6,> 100,O=C(NCc1ccc(C(F)(F)F)cc1)c1cnc(N2CCN(C3CCN(Cc4ccc(Br)cc4)CC3)CC2)c(Cl)c1 [compound 31]
7,> 100,CC(c1ccc(C#N)cc1)N1CCC(N2CCN(c3ncc(C(=O)NCc4ccc(Cl)c(Cl)c4)cc3Cl)CC2)CC1 (centres unmarked) [compound 32]
8,> 100,O=C(NCc1ccc(F)c(Cl)c1)c1cnc(N2CCN(C3CCN(Cc4ccc(Br)cc4F)CC3)CC2)c(Cl)c1 [compound 33]
9,> 100,O=C(NCc1ccc(F)cc1)c1cnc(N2CCN(C3CCN(Cc4ccc(F)cc4F)CC3)CC2)c(Cl)c1 [compound 34]
10,> 100,O=C(NCCOc1ccccc1)c1cnc(N2CCN(C3CCN(Cc4ccc(F)c(F)c4)CC3)CC2)c(Cl)c1 [compound 35]
11,> 100,O=C(NCc1ccc(Br)cc1)c1cnc(N2CCN(C3CCN(Cc4ccc(Br)cc4F)CC3)CC2)c(Cl)c1 [compound 36]
12,> 100,O=C(NC1CCCC1)c1cnc(N2CCN(C3CCN(Cc4ccc(Br)cc4)CC3)CC2)c(Cl)c1 [compound 37]
13,> 100,O=C(NCCOc1ccccc1)c1cnc(N2CCN(C3CCN(Cc4ccc(Cl)cc4Cl)CC3)CC2)c(Cl)c1 [compound 38]
14,> 100,O=C(NCc1ccccc1)c1cnc(N2CCN(C3CCN(Cc4ccc(Br)cc4)CC3)CC2)c(Cl)c1 [compound 39]
15,> 100,N#Cc1ccc(CN2CCC(N3CCN(c4ncc(C(=O)NCc5cc(Cl)cc(Cl)c5)cc4Cl)CC3)CC2)cc1 [compound 40]
16,> 100,O=C(NCc1ccc(F)cc1F)c1cnc(N2CCN(C3CCN(Cc4ccc(F)cc4F)CC3)CC2)c(Cl)c1 [compound 41]
17,> 100,COc1ccc(CN2CCC(N3CCN(c4ncc(C(=O)NCc5ccc(C(F)(F)F)cc5)cc4Cl)CC3)CC2)cc1 [compound 42]
18,> 100,O=C(NCc1cccc(Cl)c1)c1cnc(N2CCN(C3CCN(Cc4ccc(Br)cc4)CC3)CC2)c(Cl)c1 [compound 43]
19,> 100,COc1ccc(CN2CCC(N3CCN(c4ncc(C(=O)NCc5cc(Cl)cc(Cl)c5)cc4Cl)CC3)CC2)cc1 [compound 44]
20,> 100,CC(c1ccc(Cl)cc1)N1CCC(N2CCN(c3ncc(C(=O)NCc4ccc(Cl)c(Cl)c4)cc3Cl)CC2)CC1 (centres unmarked) [compound 45]
21,> 100,CC(c1ccc(Cl)cc1)N1CCC(N2CCN(c3ncc(C(=O)NCc4ccc(F)c(F)c4)cc3Cl)CC2)CC1 (centres unmarked) [compound 46]
22,> 100,N#Cc1ccc(CN2CCC(N3CCN(c4ncc(C(=O)NCc5cccc(Cl)c5)cc4Cl)CC3)CC2)cc1 [compound 47]
23,> 100,O=C(NCc1ccc(Cl)cc1)c1cnc(N2CCN(C3CCN(Cc4ccc(Br)cc4F)CC3)CC2)c(Cl)c1 [compound 48]
24,> 100,O=C(NCCOc1ccccc1)c1cnc(N2CCN(C3CCN(Cc4ccc(Cl)c(Cl)c4)CC3)CC2)c(Cl)c1 [compound 49]
25,> 100,COc1ccc(CN2CCC(N3CCN(c4ncc(C(=O)NCc5ccc(F)cc5)cc4Cl)CC3)CC2)cc1 [compound 50]
